Experimental data: patent publication US20060035977A1, “Uses of acylated aminopropanediols and sulphur and nitrogen analogues of same f” (Gentif, priority 2003, published 2006)

Legend:
[1] = Effects on plasma lipids in rats in vivo; conditions: Sprague-Dawley rats, 300 mg/kg/day, intragastric gavage, once a day for 15 days
Procedure: Sprague-Dawley rats weighing 200 to 230 g (Charles River, L'Arbresle, France) were housed in a 12-hour light/dark cycle at a constant temperature of 20±3° C. After a 1-week acclimatization period, rats were weighed and distributed into groups of 8 animals selected such that the distribution of plasma cholesterol and triglyceride levels was uniform. The test compounds were suspended in a vehicle (0.5% carboxymethylcellulose (CMC) and 0.1% Tween) and administered by intragastric gavage at the indicated doses, once a day for 15 days. Animals had access to food and water ad libitum. At the end of the experiments, animals were weighed and sacrificed under anesthesia after a 5-hour fast. Blood was collected on EDTA. Plasma was isolated by centrifugation at 3000 rpm for 20 minutes. […]
Lipid concentrations in plasma (total cholesterol and triglycerides) were determined by a […] assay (Bio-Mérieux, Marcy I'Etoile, France) according to the supplier's instructions. Plasma concentrations of apolipoproteins AII, AI and CIII were determined as previously described (Raspe, Madsen et al. 1999) and (Asset, Staels et al. 1999).
To separate the lipoproteins according to size, 300 μl of plasma were loaded on a Sepharose 6HR 10/30 column (Pharmacia, Uppsala, Sweden) and eluted at a constant flow rate (0.2 ml/minute) in PBS (pH 7.2). Optical density of the eluent was recorded at 280 nm. […]

LDL = assay: Protection against LDL oxidation induced by copper (conjugated diene formation); type: biochemical; conditions: for antioxidant activity on LDL oxidation induced by copper: conjugated diene formation, 30° C., 8 hours; for shift in the lag phase latency (delay): LDL oxidation induced by copper, conjugated dienes at 234 nm, relative to control (FIG. 4A)
Procedure: LDL were prepared as described in Lebeau et al. (Lebeau, Furman et al. 2000). The solutions of the test compounds were prepared at 10^−2 M in ethanol and diluted in PBS so that the final concentration ranged from 0.1 to 100 μM with a total ethanol concentration of 1% (VN).
Before oxidation, EDTA was removed from the LDL preparation by dialysis. The oxidation reaction was then carried out at 30° C. by adding 100 μl of 16.6 μM CuSO4 to 800 μl of LDL (125 μg protein/ml) and 100 μl of a test compound solution. The formation of dienes, the species to be followed, was measured by the optical density at 234 nm in the samples treated with the compounds in the presence or absence of copper. Optical density at 234 nm was measured every 10 minutes for 8 hours on a thermostated spectrophotometer (Kontron Uvikon 930). The analyses were carried out in triplicate. A compound was considered to have antioxidant activity when it shifted the lag phase latency relative to the control sample. […] FIG. 4 presents an example of the results obtained with the inventive compounds.

Gal4/PPARα = target: T1, Gal4/PPARα (Homo sapiens, UniProt Q07869); assay: Gal4/PPARα transactivation system in HepG2 cells (luciferase reporter); conditions: 24 h, HepG2 cells transfected with Gal4/PPARα plasmids, compound in PC liposomes
T1 sequence (Q07869 239-466 limits assumed): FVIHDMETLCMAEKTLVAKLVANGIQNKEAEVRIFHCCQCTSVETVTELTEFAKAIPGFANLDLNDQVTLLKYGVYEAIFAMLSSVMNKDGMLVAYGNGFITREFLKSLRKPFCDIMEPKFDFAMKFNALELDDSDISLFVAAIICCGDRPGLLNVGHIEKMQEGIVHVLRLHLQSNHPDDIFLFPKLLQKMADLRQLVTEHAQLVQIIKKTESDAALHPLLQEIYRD
Procedure: PPAR activation was tested in vitro in RK13 fibroblast cell lines or in a hematocyte line HepG2 by measuring the transcriptional activity of chimeras composed of the DNA binding domain of the yeast gal4 transcription factor and the ligand binding domain of the different PPARs. The example below is given for HepG2 cells.
HepG2 cells were from ECACC (Porton Down, UK) and were grown in DMEM medium supplemented with 10% (V/V) fetal calf serum, 100 U/ml penicillin (Gibco, Paisley, UK) and 2 mM L-glutamine (Gibco, Paisley, UK). The culture medium was changed every two days. Cells were kept at 37° C. in a humidified 95% air/5% CO2 atmosphere.
HepG2 cells were seeded in 24-well culture dishes at 5×10^4 cells/well and transfected for 2 hours with the reporter plasmid pG5TkpGL3 (50 ng/well), the expression vectors pGal4-f, pGal4-mPPARα, pGal4-hPPARα, pGal4-hPPARγ, or pGal4-hPPARβ (100 ng/well) and the transfection efficiency control vector pRL-CMV (1 ng/well) according to the previously described protocol (Raspe, Madsen et al. 1999), then incubated for 36 hours with the test compounds. At the end of the experiment, the cells were lysed (Gibco, Paisley, UK) and luciferase activity was determined with a Dual-Luciferase™ Reporter Assay System kit (Promega, Madison, Wisc., USA) according to the supplier's instructions. The protein content of the cell extracts was then measured with the Bio-Rad Protein Assay kit (Bio-Rad, Munich, Germany) as directed by the supplier.
The results are expressed as the induction factor (luminescent signal of treated cells divided by luminescent signal of untreated cells) after the different treatments.

| Compound | melting point | induction factor (luminescent signal of treated cells divided by luminescent signal of untreated cells) (Gal4/PPARα; 5 μM) [fold] | induction factor (luminescent signal of treated cells divided by luminescent signal of untreated cells) (Gal4/PPARα; 15 μM) [fold] | induction factor (luminescent signal of treated cells divided by luminescent signal of untreated cells) (Gal4/PPARα; 50 μM) [fold] | induction factor (luminescent signal of treated cells divided by luminescent signal of untreated cells) (Gal4/PPARα; 100 μM) [fold] | antioxidant activity on LDL oxidation induced by copper (LDL) | also measured |
| --- | --- | --- | --- | --- | --- | --- | --- |
| CCCCCCCCCCCCCCSCC(=O)NCC(CNC(=O)CSCCCCCCCCCCCCCC)OC(=O)CSCCCCCCCCCCCCCC [Ex 11, 1,3-ditetradecylthioacetylamino-2-(tetradecylthioacetyloxy)propane] | – | – | – | – | – | exhibit intrinsic antioxidant properties | total plasma cholesterol ([1]; D0, D7, D14 (FIG. 3A)): lowered; plasma triglycerides ([1]; D0, D7, D14 (FIG. 3B)): lowered |
| CCCCCCCCCCCCCCCC(=S)OC(CN)CN.Cl.Cl | 224 °C (dec.) | – | – | – | – | – | – |
| CCCCCCCCCCCCCCCC(=O)NCC(O)CO (stereo not drawn) [Ex 3, 3-(palmitoylamino)propane-1,2-diol] | 104 to 108 °C | – | – | – | – | – | – |
| 1,2-(dipalmitoyloxy)-3-tetradecylthioacetylaminopropane [Ex 4] | – | – | – | – | – | exhibit intrinsic antioxidant properties | shift in the lag phase latency (delay) (LDL): 34.3% |
| 1,2-(ditetradecylthioacetyloxy)-3-palmitoylaminopropane [Ex 6] | – | 1.1 | 2.2 | 9.6 | 14.5 | exhibit intrinsic antioxidant properties | – |

Now from value to compound, other results behind:

| melting point | induction factor (luminescent signal of treated cells divided by luminescent signal of untreated cells) (Gal4/PPARα; 5 μM) [fold] | induction factor (luminescent signal of treated cells divided by luminescent signal of untreated cells) (Gal4/PPARα; 15 μM) [fold] | induction factor (luminescent signal of treated cells divided by luminescent signal of untreated cells) (Gal4/PPARα; 50 μM) [fold] | induction factor (luminescent signal of treated cells divided by luminescent signal of untreated cells) (Gal4/PPARα; 100 μM) [fold] | Compound | antioxidant activity on LDL oxidation induced by copper (LDL) | also measured |
| --- | --- | --- | --- | --- | --- | --- | --- |
| 181 °C (dec.) | – | – | – | – | CCCCCCCCCCCCCCCC(=S)SC(CN)CN.Cl.Cl | – | – |
| – | 1.2 | 2.5 | 7 | 10.5 | 1,2-(ditetradecylthioacetyloxy)-3-tetradecylthioacetylaminopropane [Ex 5] | exhibit intrinsic antioxidant properties | – |
| – | 1.5 | 7.7 | 19.8 | 19.2 | CCCCCCCCCCCCCCSCC(=O)NCC(O)CO (stereo not drawn) [Ex 2, 3-(tetradecylthioacetylamino)propane-1,2-diol] | exhibit intrinsic antioxidant properties | shift in the lag phase latency (delay) (LDL): 13.4% |
